Molecules are shown by their SMILES.

The target of assay [1] is T1, human 11βHSD1 (Homo sapiens, UniProt P28845). The experiment in a line: 11βHSD1 enzymatic assay, percentage of inhibition. In kind it is biochemical. Particulars: inhibitor at 0.1 uM. The protocol:
Percentage of inhibition was determined in a 100 mM Triethanolamine buffer, pH 8.0, 200 mM NaCl, 0.02% n-dodecyl β-D-maltoside and 5mM β-ME. A typical reaction was carried on a Corning® u-bottom 96-well plate and is described as follows: 11βHSD1 enzyme (5 nM, final concentration) was pre-incubated in the presence of the inhibitor and NADPH (500 μM, final concentration) for at least 30 minutes in the assay buffer. When pre-incubation was completed, the reaction was initiated by adding the regenerating system (2 mM Glucose-6-Phosphate, 1 U/mL Glucose-6-Phosphate dehydrogenase, and 6 mM MgCl2, all the concentration reported are final in the assay buffer), and 3H-cortisone (200 nM, final concentration). After 60 minutes, 60 μL of the assay mixture was transferred to a second 96-well plate and mixed with an equal volume of dimethylsulfoxide to stop the reaction. A 15 μL aliquot from the reaction mixture was loaded into a C-18 column (Polaris C18-A, 50×4.6 mm, 5μ, 180 Angstrom from Varian) connected to an automated High-throughput Liquid Chromatography instrument developed by Cohesive Technologies commercially available from Franklin, Mass., with a β-RAM model 3 Radio-HPLC detector from IN/US commercially available from Tampa, Fla. The substrate and product peaks were separated by using an isocratic mixture of 43:57 methanol to water (v/v) at a flow rate of 1.0 mL/min.
Percent Inhibition was calculated based on the following equation: (100−(3H-Cortisol peak area with inhibitor/3Hcortisol peak area without inhibitor)×100).
[1,2-3H]-cortisone is commercially available from American Radiolabeled Chemicals Inc. of St. Louis, Mo. USA. NADPH while Glucose-6-Phosphate and Glucose-6-Phosphate dehydrogenase was purchased from Sigma®.

In assay [2] the target is T1, human 11βHSD1. The experiment in a line: 11βHSD1 enzymatic assay (Kiapp determination). In kind it is biochemical. Here is the method:
The 11βHSD1 assay was performed in a 100 mM Triethanolamine buffer pH 8.0, containing 200 mM NaCl, 0.02% n-dodecyl β-D-maltoside, 5% glycerol, 5 mM β-mercaptoethanol. A typical reaction for the determination of Kiapp values was carried at room temperature in a Corning® u-bottom 96-well plate and is described as follows: 11βHSD1 enzyme (5 nM, final concentration) was pre-incubated in the presence of the inhibitor and NADPH (500 μM, final concentration) for at least 30 minutes in the assay buffer. When pre-incubation was completed, the reaction was initiated by adding the regenerating system (2 mM Glucose-6-Phosphate, 1 U/mL Glucose-6-Phosphate dehydrogenase, and 6 mM MgCl2, all the concentration reported are final in the assay buffer), and 3H-cortisone (200 nM, final concentration). After 60 minutes, 60 μL of the assay mixture was transferred to a second 96-well plate and mixed with an equal volume of dimethylsulfoxide to stop the reaction. A 15 μL aliquot from the reaction mixture was loaded into a C-18 column (Polaris C18-A, 50×4.6 mm, 5μ, 180 Angstrom from Varian) connected to an automated High-throughput Liquid Chromatography instrument developed by Cohesive Technologies, commercially available from Franklin, Mass. USA, with a β-RAM model 3 Radio-HPLC detector from IN/US, commercially available from Tampa, Fla. USA. The substrate and product peaks were separated by using an isocratic mixture of 43:57 methanol to water (v/v) at a flow rate of 1.0 mL/min.
The initial reaction velocities were measured by stopping the reaction at 60 min and by measuring the area of product formation in the absence and the presence of various concentrations of inhibitors. The Kiapp values were determined using the equation for tight-binding inhibitor developed by Morrison, J F. (Morrison J F. Biochim Biophys Acta. 1969; 185: 269-86):
Where vi, and vo are the rates of cortisol formation in the presence and in the absence of inhibitor, respectively, I is the inhibitor concentration and E is the 11βHSD1 concentration in the assay buffer. All the concentrations reported are the final concentrations in the assay buffer
See also Morrison, J. F., “Kinetics of the reversible inhibition of enzyme-catalysed reactions by tight-binding inhibitors,” Biochim Biophys Acta., 1969; 185: 269-86.

Assay [3] deals with T1, human 11βHSD1. The experiment in a line: Human Fa2N-4 immortalized cell-based assay (cortisol accumulation). Particulars: Fa2N-4 human hepatocyte-derived cells, cortisol EIA, 5 μM cortisone, overnight. The protocol:
Human Fa2N-4 Immortalized Cell-Based Assay
Fa2N4 is a cell line derived from human hepatocytes, developed by MultiCell Technologies, Inc. (U.S. Pat. No. 6,107,043), and commercialized by XenoTech LLC via an exclusive license. […] Inhibition of 11βHSD1 enzyme activity was assessed in this cell model by measuring decrease in cortisol (enzyme product) accumulation in cultures co-treated with cortisone (enzyme substrate) and the potential enzyme inhibitor. Cortisol signal was quantitatively determined in the supernatant of treated cells by means of the Correlate-Enzyme Immunoassay (EIA)™Cortisol kit (Assay Designs, Inc.).
Cells were plated in 96 Well Flat Bottom Collagen-coated Microplates, 20,000 cell/well, in 200 μl/well MFE™ (Multi-functional Enhancing—XenoTech, LLC) medium, containing antibiotics (penicillin-streptomycin) and supplemented with 10% of heat inactivated fetal bovine serum. Plates were incubated at 37° C., 5% CO2 overnight. The following day, and before addition of cortisone and inhibitor compounds, medium was changed to Hepatocyte Basal Medium (HBM—Cambrex Bio ScienceWalkersVille, Inc) containing only antibiotics. Thirty-minute pre-incubation with various concentrations of inhibitor compounds (20 μL/well), was followed by addition of 5 μM Cortisone (20 μL/well), and cells were incubated at 37° C., 5% CO2 overnight. At the end of the incubation, 100 μL of each supernatant was analyzed for cortisol content using the Cortisol-EIA kit from Assay Designs, following manufacturers' instructions. Plates were read on a plate reader (Spectra MAX PLUS—Molecular Devices Corporation) at 405 nm, with correction at 580 nm. All results were compared to 100% activation control, i.e. cells treated only with cortisone (no inhibitors added).

The target in assay [4] is T1, human 11βHSD1. The experiment in a line: HEK293-11βHSD1/GRE-Luciferase cell-based assay. Also noted: expressed in transfected cells. The conditions noted are these: HEK293 cells over-expressing human 11βHSD1, GRE-luciferase readout, cortisone substrate, 6 h; read-out: HEK EC50. The protocol:
HEK293-11 βHSD1/GRE-Luciferase Cell-Based Assay
Inhibition of 11βHSD1 enzyme activity was also measured using human kidney HEK293 stable transfected cells, over-expressing human 11βHSD1, and a reporter plasmid containing DNA sequences for specific recognition of glucocorticoid-activated glucocorticoid receptors (GRE), using a method similar to that described in Bujalska et al, Human 11β-hydroxysteroid dehydrogenase: Studies on the stably transfected isoforms and localization of the type 2 isozyme within renal tissue, Steroids, 62(1), […], 77-82 . These sequences were fused to a luciferase reporter gene (Luc) allowing for quantification of 11 βHSD1 enzyme modulation. […] Cortisol (but not cortisone) binds and activates glucocorticoid receptors (GR), which will result in activation of luciferase and production of light (assay readout). A compound with the capability of inhibiting 11βHSD1 will reduce the luciferase signal, as compared to the cortisone control (enzyme substrate).
Cells were plated in 384 Well Flat Bottom White Polystyrene TC-Treated Microplates, at 20,000 cell/well at a volume of 40 μl/well, in serum-free DME Medium. Plates were incubated at 37° C., 5% CO2 overnight before addition of inhibitor compounds. Different concentrations of inhibitor compounds were added in 10% (v/v) dimethylsulfoxide (5 μL/well), followed by addition of 3 μM Cortisone (5 μL/well), and cells were incubated at 37° C. (5% CO2) for six hours. At the end of the incubation, 25 μL/well SteadyLite HTS were added and plates were incubated 10min at room temp on shaker. Plates were then read on Top Count using 384HSD1 program. The concentration of inhibitor compound causing 50% inhibition of light signal was determined via a custom made Excel Macro. All results were compared to 100% activation control, i.e. cells treated only with cortisone (no inhibitors added).

T1 sequence (P28845 whole entry): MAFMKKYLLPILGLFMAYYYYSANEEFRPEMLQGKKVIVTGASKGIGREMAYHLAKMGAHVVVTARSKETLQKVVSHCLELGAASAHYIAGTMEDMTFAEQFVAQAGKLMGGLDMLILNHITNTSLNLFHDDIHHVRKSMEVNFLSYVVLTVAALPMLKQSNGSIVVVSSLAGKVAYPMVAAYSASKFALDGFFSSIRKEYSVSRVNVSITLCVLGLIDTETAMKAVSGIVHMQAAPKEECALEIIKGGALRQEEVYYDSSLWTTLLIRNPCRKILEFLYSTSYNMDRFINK

Take `CCC(O)c1cccc(NS(=O)(=O)c2ccc(-c3ccc(C#N)cc3)cc2)n1` (single isomer, unassigned; (-)) [3(−), (−)4′-cyano-N-[6-(1-hydroxypropyl)pyridin-2-yl]biphenyl-4-sulfonamide]: the “% inh @ 0.1 uM” value on human 11βHSD1 [1] worked out at 59%.

A word on the inhibition: it is how much of the control response was suppressed. `Cc1cc(-c2ccc(C#N)cc2)ccc1S(=O)(=O)Nc1cccc(C(C)O)n1` (single isomer, unassigned; (-)) [4(−), (−)4′-Cyano-N-[6-(1-hydroxyethyl)pyridin-2-yl]-3-methylbiphenyl4-sulfonamide]: on human 11βHSD1 [1], testing at 0.1 µM gave an inhibition of 84%.

By EC50 is commonly meant the concentration needed to bring the measured effect to its halfway point. `Cc1cc(-c2ccc(C#N)cc2)ccc1S(=O)(=O)Nc1cccc(C(C)O)n1` (single isomer, unassigned; (+)) [4(+), (+)4′-Cyano-N-[6-(1-hydroxyethyl)pyridin-2-yl]-3-methylbiphenyl4-sulfonamide]: at human 11βHSD1 [2], the Ki came out at 2.7 nM. For the same compound, the inhibition at 0.1 µM against human 11βHSD1 [1] was found to be 100%. The EC50 on human 11βHSD1 [3] amounted to 7.86 nM; on human 11βHSD1 [4] it was 23.1 nM.

In turn, `Cc1cc(N)nc(NS(=O)(=O)c2sc(-c3ccc(C#N)cc3)nc2C)c1` [Example 1, N-(6-amino-4-methylpyridin-2-yl)-2-(4-cyanophenyl)-4-methyl-1,3-thiazole-5-sulfonamide] gave a Ki at human 11βHSD1 [2] of 1.8 nM. The compound also yielded an inhibition at 0.1 µM on human 11βHSD1 [1] of 100%.

The compound `CCNc1cccc(NS(=O)(=O)c2ccc(-c3ccc(C#N)cc3)cc2)n1` [Example 8, 4′-cyano-N-[6-(ethylamino)pyridin-2-yl]biphenyl4-sulfonamide] returned a Ki at human 11βHSD1 [2] of 4.8 nM. Moreover, the inhibition at 0.1 µM against human 11βHSD1 [1] amounted to 88%.

`Cc1cc(N)nc(NS(=O)(=O)c2cc(C)c(Cl)cc2F)c1` [Example 6, N-(6-amino-4-methylpyridin-2-yl)-4-chloro-2-fluoro-5-methylbenzenesulfonamide] yielded a Ki at human 11βHSD1 [2] of 2.8 nM. On human 11βHSD1 [1], this compound gave an inhibition at 0.1 µM of 98%.

As for `CC(O)c1cccc(NS(=O)(=O)c2ccc(-c3ccc(C#N)cc3)cc2)n1` (single isomer, unassigned; (-)) [2(−), (−)4′-Cyano-N-[6-(1-hydroxyethyl)pyridin-2-yl]biphenyl4-sulfonamide], the “% inh @ 0.1 uM” value at human 11βHSD1 [1] is reported as 53%.

For the compound `CCC(O)c1cccc(NS(=O)(=O)c2ccc(-c3ccc(C#N)cc3)cc2)n1` (single isomer, unassigned; (+)) [3(+), (+)-4′-cyano-N-[6-(1-hydroxypropyl)pyridin-2-yl]biphenyl-4-sulfonamide], the Ki on human 11βHSD1 [2] was determined as 5.19 nM. Besides, the “% inh @ 0.1 uM” value on human 11βHSD1 [1] turned out to be 97.9%. For the same compound, the figures for the EC50 at human 11βHSD1 [3] and at human 11βHSD1 [4] were 11.6 nM and 50.7 nM, respectively.

As for `Cc1cc(S(=O)(=O)Nc2cccc(N)n2)c(F)cc1Cl` [Example 5, N-(6-aminopyridin-2-yl)-4-chloro-2-fluoro-5-methylbenzenesulfonamide], the Ki at human 11βHSD1 [2] stood at 9.7 nM. Further, at human 11βHSD1 [1], the inhibition at 0.1 µM worked out at 93%.

The compound `CC(O)c1cccc(NS(=O)(=O)c2ccc(-c3ccc(C#N)cc3)cc2)n1` (single isomer, unassigned; (+)) [2(+), (+)-4′-Cyano-N-[6-(1-hydroxyethyl)pyridin-2-yl]biphenyl4-sulfonamide] gave a Ki on human 11βHSD1 [2] of 19 nM. At human 11βHSD1 [1], the “% inh @ 0.1 uM” value was determined as 85%. Further, the values for the EC50 at human 11βHSD1 [3] and at human 11βHSD1 [4] were 56 nM and 160 nM, respectively.

For the compound `CCCCOc1ccc(S(=O)(=O)Nc2cccc(N)n2)cc1` [Example 7, N-(6-aminopyridin-2-yl)-4-butoxybenzenesulfonamide], the Ki on human 11βHSD1 [2] is 3.8 nM. In addition, on human 11βHSD1 [1], the inhibition at 0.1 µM came out at 100%.

As to `N#Cc1ccc(-c2ccc(S(=O)(=O)Nc3cccc(CCO)n3)cc2)cc1` [Comparative Example A, reference compound], the half-maximal effective concentration (EC50) was 77.7 nM on human 11βHSD1 [3] and 423 nM on human 11βHSD1 [4].

The compound `N#Cc1ccc(-c2ccc(S(=O)(=O)Nc3cccc(CO)n3)cc2)cc1` [Example 9, 4′-cyano-N-[6-(hydroxymethyl)pyridin-2-yl]biphenyl-4-sulfonamide] gave a Ki at human 11βHSD1 [2] of 2.8 nM. Testing at 0.1 µM at human 11βHSD1 [1] gave an inhibition of 100%. Moreover, the values for the EC50 at human 11βHSD1 [3] and at human 11βHSD1 [4] were 21.8 nM and 59 nM, respectively.

For the origin of these results see patent US7462634B2, “N-(pyridin-2-yl)-sulfonamide derivatives” (Agouron Pharmaceuticals, Inc., priority 2005, dated 2008).
